Data taken from patent publication US11311522B1 (Cavion, Inc., priority 2018, dated 2022).
“And” between values parts separate entries of the source, which are not always exact repeats. Identical values can stand only once.

Tests used:
slow wave activity = test: PN003: polysomnogram, slow wave activity; type: in vivo, human; conditions: 12 mg single dose, 24 subjects, Study PN003
Procedure: A washout period of at least 2 weeks separated the treatment periods. […] The PSG recordings were initiated at each subject's habitual bedtime and continued for 8 hours.

[1] = Excretion of 14C-labeled CX-8998 in rats; type: in vivo, rat; conditions: 20 mg/kg oral
Source text: Glucuronide conjugates of the oxygenated metabolites are detected in human, monkey, and dog hepatocyte preparations. […] However, the abundance of CYP3A5, CYP2C19, and CYP2D6 in human liver microsomes is low (2%-5%) relative to the primary contributors, CYP3A4 (˜30%) and CYP2C9 (˜20%). […] Information on reproductive and developmental toxicology was obtained in a 28-day pivotal female fertility study in rats and in preliminary embryo-fetal development studies in rats and rabbits.

Cav3.3 = biological target: T1, Cav3.3 (Homo sapiens, UniProt Q9P0X4); test: Cav3.3 whole-cell voltage-clamp; type: cell-based
T1 construct: expressed in transfected cells; host or cells: HEK 293
T1 sequence (Q9P0X4 whole entry, species assumed): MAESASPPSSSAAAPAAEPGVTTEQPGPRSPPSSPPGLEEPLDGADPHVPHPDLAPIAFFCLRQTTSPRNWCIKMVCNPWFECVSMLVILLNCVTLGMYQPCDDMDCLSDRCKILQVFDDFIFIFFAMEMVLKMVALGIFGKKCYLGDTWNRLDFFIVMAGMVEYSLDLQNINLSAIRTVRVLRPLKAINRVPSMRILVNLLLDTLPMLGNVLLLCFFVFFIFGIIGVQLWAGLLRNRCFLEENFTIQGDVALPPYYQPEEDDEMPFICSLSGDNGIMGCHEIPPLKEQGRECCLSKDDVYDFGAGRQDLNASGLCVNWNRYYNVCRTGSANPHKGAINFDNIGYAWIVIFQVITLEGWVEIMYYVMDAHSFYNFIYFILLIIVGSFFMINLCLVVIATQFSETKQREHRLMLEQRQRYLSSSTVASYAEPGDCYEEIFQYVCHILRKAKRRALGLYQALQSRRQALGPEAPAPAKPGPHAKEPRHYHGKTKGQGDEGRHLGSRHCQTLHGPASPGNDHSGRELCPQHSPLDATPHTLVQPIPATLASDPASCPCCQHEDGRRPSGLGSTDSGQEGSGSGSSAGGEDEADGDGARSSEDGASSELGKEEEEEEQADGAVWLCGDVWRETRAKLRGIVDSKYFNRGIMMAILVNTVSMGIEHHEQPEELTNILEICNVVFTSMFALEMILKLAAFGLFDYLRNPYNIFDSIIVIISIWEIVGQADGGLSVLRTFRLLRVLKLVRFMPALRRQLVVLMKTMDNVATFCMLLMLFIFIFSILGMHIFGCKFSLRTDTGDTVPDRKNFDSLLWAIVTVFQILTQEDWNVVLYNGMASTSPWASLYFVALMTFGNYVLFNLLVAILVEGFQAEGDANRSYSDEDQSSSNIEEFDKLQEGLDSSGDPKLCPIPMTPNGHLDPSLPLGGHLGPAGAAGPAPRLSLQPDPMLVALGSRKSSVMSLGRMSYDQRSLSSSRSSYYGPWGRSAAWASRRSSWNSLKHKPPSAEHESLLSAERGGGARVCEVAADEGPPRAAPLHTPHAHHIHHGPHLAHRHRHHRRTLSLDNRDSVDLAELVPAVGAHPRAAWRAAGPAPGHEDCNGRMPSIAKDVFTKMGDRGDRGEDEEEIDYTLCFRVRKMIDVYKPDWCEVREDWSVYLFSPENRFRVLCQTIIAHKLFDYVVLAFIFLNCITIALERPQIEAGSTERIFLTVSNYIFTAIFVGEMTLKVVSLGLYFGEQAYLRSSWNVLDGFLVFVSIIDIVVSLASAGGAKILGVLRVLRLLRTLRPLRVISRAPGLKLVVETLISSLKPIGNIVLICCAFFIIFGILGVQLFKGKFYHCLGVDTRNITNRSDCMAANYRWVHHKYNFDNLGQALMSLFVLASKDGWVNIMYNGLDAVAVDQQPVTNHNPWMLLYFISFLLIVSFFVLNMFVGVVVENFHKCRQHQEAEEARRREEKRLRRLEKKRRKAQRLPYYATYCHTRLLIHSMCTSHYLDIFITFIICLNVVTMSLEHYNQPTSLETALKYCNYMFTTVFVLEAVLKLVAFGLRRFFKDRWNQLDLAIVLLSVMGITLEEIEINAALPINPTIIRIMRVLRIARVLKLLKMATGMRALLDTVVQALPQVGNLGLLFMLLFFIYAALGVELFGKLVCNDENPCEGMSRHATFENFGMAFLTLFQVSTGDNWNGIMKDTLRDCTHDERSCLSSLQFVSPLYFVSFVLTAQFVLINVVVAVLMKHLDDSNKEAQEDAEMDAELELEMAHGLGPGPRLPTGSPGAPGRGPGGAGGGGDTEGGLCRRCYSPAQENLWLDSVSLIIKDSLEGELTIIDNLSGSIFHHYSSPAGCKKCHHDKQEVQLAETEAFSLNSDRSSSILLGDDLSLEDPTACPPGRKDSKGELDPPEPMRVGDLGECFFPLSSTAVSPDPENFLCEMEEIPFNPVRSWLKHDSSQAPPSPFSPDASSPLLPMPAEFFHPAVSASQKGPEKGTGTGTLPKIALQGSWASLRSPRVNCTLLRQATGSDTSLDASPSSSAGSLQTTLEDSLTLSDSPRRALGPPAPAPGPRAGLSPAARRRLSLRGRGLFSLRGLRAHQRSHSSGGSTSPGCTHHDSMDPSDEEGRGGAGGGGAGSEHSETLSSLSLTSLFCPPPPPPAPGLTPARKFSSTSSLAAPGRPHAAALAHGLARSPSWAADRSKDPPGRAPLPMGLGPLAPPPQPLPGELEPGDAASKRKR

[2] = tested on: patients with essential tremor; test: T-CALM: TETRAS activities of daily living subscale; type: in vivo, human; conditions: for TETRAS-ADL Score, Median (minimum, maximum) / TETRAS-ADL Score, Mean (SD): post-hoc
Source text: The sum of the individual scores provides the overall score, ranging from 0 to 48. The complete TETRAS ADL Subscale is as follows.
Rate tremor's impact on activities of daily living (0-4 scoring). • 1. Speaking • 0=Normal • 1=Slight voice tremulousness, only when “nervous”. • 2=Mild voice tremor. All words easily understood. • 3=Moderate voice tremor. Some words difficult to understand. • 4=Severe voice tremor. Most words difficult to understand. • 2. Feeding with a spoon • 0=Normal • 1=Slightly abnormal. […] Spills a little. • 3=Moderately abnormal. Spills a lot or changes strategy to complete task such as using two hands or leaning over. • 4=Severely abnormal Cannot feed with a spoon. • 3. Drinking from a glass • 0=Normal. • 1=Slightly abnormal. […] Spills a little. • 3=Moderately abnormal. Spills a lot or changes strategy to complete task such as using two hands or leaning over. • 4=Severely abnormal. Cannot drink from a glass or uses straw or sippy cup. • 4. Hygiene • 0=Normal. • 1=Slightly abnormal. […] Some difficulty but can complete task. • 3=Moderately abnormal. Unable to do most fine tasks such as putting on lipstick or shaving unless changes strategy such as using two hands or using the less affected hand. • 4=Severely abnormal. Cannot complete hygiene activities independently. • 5. Dressing • 0=Normal. • 1=Slightly abnormal. […] Able to do everything but has difficulty due to tremor. • 3=Moderately abnormal. Unable to do most dressing unless uses strategy such as using Velcro, buttoning shirt before putting it on or avoiding shoes with laces. • 4=Severely abnormal. Cannot dress independently. • 6. Pouring • 0=Normal. • 1=Slightly abnormal. […] Must be very careful to avoid spilling but may spill occasionally. • 3=Moderately abnormal. Must use two hands or uses other strategies to avoid spilling. • 4=Severely abnormal. Cannot pour. • 7. Carrying food trays, plates or similar items • 0=Normal • 1=Slightly abnormal. […] Must be very careful to avoid spilling items on food tray. • 3=Moderately abnormal. Uses strategies such as holding tightly against body to carry. • 4=Severely abnormal. Cannot carry food trays or similar items. • 8. Using Keys • 0=Normal • 1=Slightly abnormal. Tremor is present but can insert key with one hand without difficulty. • 2=Mildly abnormal. Commonly misses target but still routinely puts key in lock with one hand. • 3=Moderately abnormal. Needs to use two hands or other strategies to put key in lock. • 4=Severely abnormal. Cannot put key in lock. • 9. Writing • 0=Normal • 1=Slightly abnormal. […] Difficulty writing due to the tremor • 3=Moderately abnormal. Cannot write without using strategies such as holding the writing hand with the other hand, holding pen differently or using large pen. • 4=Severely abnormal. Cannot write. • 10. Working. If patient is retired, ask as if they were still working. If the patient is a housewife, ask the question as it relates to housework: • 0=Normal. • 1=Slightly abnormal. […] Tremor interferes with work; able to do everything, but with errors. • 3=Moderately abnormal. Unable to continue working without using strategies such as changing jobs or using special equipment. • 4=Severely abnormal. Cannot perform any job or household work. • 11. Overall disability with the most affected task (Name task, e.g. using computer mouse, writing, etc) • Task • 0=Normal. • 1=Slightly abnormal. […] Tremor interferes with task but is still able to perform task. • 3=Moderately abnormal. Can do task but must use strategies. • 4=Severely abnormal. Cannot do the task. • 12.
Analyses of the TETRAS-ADL was conducted using the same type of ANCOVA model as described for the TETRAS-PS, using two-sided tests at the alpha=0.05 level of significance (FIG. 2 and Table 2).

respiratory function = test: Respiratory function, whole body plethysmography; conditions: female, rat, in vivo
[3] = Respiratory function, whole body plethysmography; conditions: female, rat; for Cmax: plasma, po
Cav3 = tested on: T2, Cav3; test: Cav3 potency and state dependency, summary of Cav3 antagonist pharmacological properties; type: cell-based
T2 construct: rows headed: Cav3 potency

[4] = in vivo
[5] = Day 15, patients Minimally Improved by PGIC, N=17
[6] = Day 28, patients Minimally Improved by CGI-I, N=15
[7] = Day 28, patients Minimally Improved by PGIC, N=10

Question: Which “Slow Wave Activity during the First One-Third of the Sleep Period, Geometric Mean” value (slow wave activity) does the source give for CC(C)c1ccc(CC(=O)N[C@H](C)c2ccc(OCC(F)(F)F)cn2)cc1 [CX-8998] here?
Answer: The value was 26.36 μV^2/Hz.

Question: And the “Slow Wave Activity during the First One-Third of the Sleep Period, Raw Value Mean” value (slow wave activity)?
Answer: The value was 30.51 μV^2/Hz.

Question: And the “Dose excreted in feces as unchanged drug” value [1]?
Answer: Its value is “Less than 1%”.

Question: What about the Radioactivity in feces [1] of the same compound?
Answer: Its Radioactivity in feces is “approximately 5%”.

Question: What about the “Radioactivity recovered in bile” value [1] of the same compound?
Answer: Its value is 46%.

Question: What about the “Radioactivity recovered in urine” value [1] of the same compound?
Answer: Its value is 43%.

Question: What about the “Recovered radioactivity excreted in the first day” value [1] of the same compound?
Answer: The value was greater than 85%.

Question: What about the “Recovery of label after 72 hours” value [1] of the same compound?
Answer: Its value is roughly 96%.

Question: What about the IC50 (Cav3.3; Vh −80 mV) of the same compound?
Answer: The IC50 was ~84 nM and 84 nM.

Question: And the IC50 (Cav3.3; Vh=−100 mV)?
Answer: Its IC50 is ~2400 nM and 2400 nM.

Question: And the “Change from baseline in TETRAS-ADL, LS mean” value ([2]; Day 15 (8 mg BID))?
Answer: The value was −4.5±0.87 and −4.5.

Question: And the “TETRAS-ADL Score, Median (minimum, maximum)” value (from here on “TETRAS-ADL Score, Median”) ([2]; Day 15, patients Minimally Improved by CGI-I, N=19)?
Answer: Its value is −2.0.

Question: What about the “TETRAS-ADL Score, Mean (SD)” value ([2]; Day 15, patients Minimally Improved by CGI-I, N=19, reduction from baseline) of the same compound?
Answer: The value was −3.7 (4.21).

Question: And the “TETRAS-ADL Score, Mean (SD)” value [2, 5]?
Answer: The value was −3.3 (4.27).

Question: What about the “TETRAS-ADL Score, Median” value [2, 5] of the same compound?
Answer: Its value is −4.0.

Question: And the “Change from baseline in TETRAS-ADL, LS mean” value ([2]; Day 28 (10 mg BID))?
Answer: Its value is −4.5±1.12 and −4.5.

Question: What about the “TETRAS-ADL Score, Mean (SD)” value [2, 6] of the same compound?
Answer: The value was −4.4 (8.10).

Question: And the “TETRAS-ADL Score, Median” value [2, 6]?
Answer: The value was −1.0 (−24, 3).

Question: What about the “TETRAS-ADL Score, Mean (SD)” value [2, 7] of the same compound?
Answer: Its value is −1.6 (3.84).

Question: And the “TETRAS-ADL Score, Median” value [2, 7]?
Answer: The value was −1.0 (−7, 3).

Question: And the “>5 to 10 point worsening” value ([2]; TETRAS-ADL, Day 15)?
Answer: The value was 0 n (%).

Question: What about the “>10 point worsening” value ([2]; TETRAS-ADL, Day 15) of the same compound?
Answer: The value was 0 n (%).

Question: What about the 0 change ([2]; TETRAS-ADL, Day 28) of the same compound?
Answer: Its 0 change is 5 (13.5%) n (%).

Question: What about the “>0 to 1 point improvement” value ([2]; TETRAS-ADL, Day 28) of the same compound?
Answer: Its value is 2 (5.4%) n (%).

Question: And the “>0 to 1 point worsening” value ([2]; TETRAS-ADL, Day 28)?
Answer: Its value is 3 (8.1%) n (%).

Question: What about the “>1 to 2.5 point improvement” value ([2]; TETRAS-ADL, Day 28) of the same compound?
Answer: Its value is 3 (8.1%) n (%).

Question: And the “>1 to 2.5 point worsening” value ([2]; TETRAS-ADL, Day 28)?
Answer: Its value is 3 (8.1%) n (%).

Question: And the “>2.5 to 5 point improvement” value ([2]; TETRAS-ADL, Day 28)?
Answer: The value was 7 (18.9%) n (%).

Question: What about the “>2.5 to 5 point worsening” value ([2]; TETRAS-ADL, Day 28) of the same compound?
Answer: The value was 3 (8.1%) n (%).

Question: What about the “>5 to 10 point improvement” value ([2]; TETRAS-ADL, Day 28) of the same compound?
Answer: The value was 6 (16.2) n (%).

Question: And the “>5 to 10 point worsening” value ([2]; TETRAS-ADL, Day 28)?
Answer: The value was 0 n (%).

Question: And the “>10 point improvement” value ([2]; TETRAS-ADL, Day 28)?
Answer: The value was 5 (13.5%) n (%).

Question: What about the “>10 point worsening” value ([2]; TETRAS-ADL, Day 28) of the same compound?
Answer: The value was 0 n (%).

Question: What about the “NOEL for respiratory function” value (respiratory function) of the same compound?
Answer: Its value is less than 30 mg/kg.

Question: And the NOAEL ([3]; in vivo)?
Answer: Its NOAEL is 30 mg/kg.

Question: And the Cmax ([3]; 300 mg/kg)?
Answer: Its Cmax is roughly 28 µM.

Question: What about the Cmax ([3]; 2000 mg/kg) of the same compound?
Answer: Its Cmax is roughly 34 µM.

Question: What about the IC50 (Cav3) of the same compound?
Answer: The IC50 was 70 to 100 nM.

Question: What about the “Micronuclei induction in bone marrow result” value [4] of the same compound?
Answer: Its value is “negative”.
